Assay results published in paper PMC4737481 (Bioorganic & medicinal chemistry letters, 2015).
“Also recorded” adds a separate entry of the source. Read-outs that look alike come from different tables or passages of the source.

Key:
[1] = tested on: intracellular T. cruzi in C2C12 host cells; assay: antitrypanosomal high-content imaging assay; format: cell-based
[2] = in vivo PK studies in mice; conditions: PO 40 mg/kg
MDCK cell monolayers = assay: permeability in MDCK cell monolayers; format: in vitro ADME; conditions: in words
CYP3A4 [3] = biological target: T1, CYP3A4 (Homo sapiens, UniProt P08684); assay: inhibition of CYP3A4 in vitro; format: in vitro ADME
T1 sequence (P08684 whole entry): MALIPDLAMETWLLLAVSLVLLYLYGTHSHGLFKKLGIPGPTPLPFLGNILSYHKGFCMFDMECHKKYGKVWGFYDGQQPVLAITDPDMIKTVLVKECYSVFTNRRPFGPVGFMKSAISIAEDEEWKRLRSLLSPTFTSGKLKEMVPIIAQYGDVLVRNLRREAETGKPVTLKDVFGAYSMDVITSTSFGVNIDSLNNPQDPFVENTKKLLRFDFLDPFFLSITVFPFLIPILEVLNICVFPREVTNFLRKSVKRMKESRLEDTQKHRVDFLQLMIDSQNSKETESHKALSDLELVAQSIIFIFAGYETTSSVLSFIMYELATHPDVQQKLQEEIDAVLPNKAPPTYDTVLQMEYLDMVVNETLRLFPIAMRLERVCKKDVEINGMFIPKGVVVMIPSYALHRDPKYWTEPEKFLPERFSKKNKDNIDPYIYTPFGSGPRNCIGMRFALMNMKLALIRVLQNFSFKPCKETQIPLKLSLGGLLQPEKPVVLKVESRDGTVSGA

[4] = stability to cultured liver microsomes; format: in vitro ADME; conditions: in words
T cruzi = T cruzi infected mice, 20 mg/kg BID (ip) for 27 days; cited from earlier work
T. cruzi parasites = conditions: cited from earlier work
CYP3A4 [5] = biological target: T1, CYP3A4; conditions: background statement on 1; cited from earlier work
[6] = ref not given, cited from earlier work
Chagas' disease = conditions: dog, oral 50 mg/kg BID for 14 days; cited from earlier work
P-glycoprotein = conditions: ref not given; cited from earlier work

With `CCCCC(C(=O)COc1c(F)c(F)cc(F)c1F)n1cc([C@@](C)(NCc2ccn3nccc3n2)C(C)C)nn1` (stereo partly drawn) [Compound 20] the IC50 ([1]; Trypanosoma cruzi, C2C12, read-out: T. cruzi IC50) was 10 nM.

With `CCCCC(C(=O)COc1c(F)c(F)cc(F)c1F)n1cc([C@@](C)(NCc2ccc3ncccc3c2)C2CCCC2)nn1` (stereo partly drawn) [Compound 8] the “Exposure following PO dosing relative to compound 4” value [2] was “two-fold higher”.

In the case of `CCCCC(C(=O)COc1c(F)c(F)cc(F)c1F)n1cc([C@@](C)(NCc2ccc3ncccc3c2)C(C)C)nn1` (stereo partly drawn) [Compound 4], the “Permeability in an MDCK cell monolayer assay” value (MDCK cell monolayers) is reported as “modest-to-low”, the “CYP3A4 inhibition (in words)” value (CYP3A4 [3]) is reported as “low μM regime” and the “stability to cultured liver microsomes” value [4] is reported as “reasonable stability”. For the same molecule, the “hematological cure (treated animals)” value (T cruzi) was 2/4 and the “activity against T. cruzi parasites in two different cell-based assays” value (T. cruzi parasites) was “effective”.

In the case of `CN1CCN(C(=O)N[C@@H](Cc2ccccc2)C(=O)N[C@H](/C=C/S(=O)(=O)c2ccccc2)CCc2ccccc2)CC1` [Compound 1, K777], the “CYP3A4 inhibition (in words)” value (CYP3A4 [5]) is listed as “irreversibly inhibits CYP3A4; also recorded: low μM regime”, the dose-exposure pharmacokinetics [6] is listed as “nonlinear dose-exposure pharmacokinetics” and the oral bioavailability ([6]; species not stated) is listed as 5–20%. The cardiac tissue damage (Chagas' disease) was “partially protected animals from cardiac tissue damage”, the parasitemia (Chagas' disease) was “reduced parasitemia below levels detectable by hemocytometry” and the P-glycoprotein substrate (P-glycoprotein) was “substrate for P-glycoprotein”.

For `CCCCC(C(=O)COc1c(F)c(F)cc(F)c1F)n1cc([C@@](C)(NCc2ccn3nccc3n2)C2CCCC2)nn1` (stereo partly drawn) [Compound 21], the “improvement of in vitro potency relative to 4” value ([1]; assay not specified) was ~ 10 fold and the “Exposure following PO dosing relative to compound 4” value [2] was “two-fold higher”.
